One experiment addresses rat TAAR1 (Rattus norvegicus (Rat), UniProt Q923Y9). The experiment is described as follows: Radioligand binding assay on rat TAAR1.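 Also: membranes from HEK293 cells stably transfected with rat TAAR1, tritiated TAAR1 radioligand, 1 h incubation at 4 °C, nonspecific binding determined with excess unlabeled ligand.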
The next experiment addresses mouse TAAR1 (Mus musculus (Mouse), UniProt Q923Y8). Put plainly: Radioligand binding assay on mouse TAAR1.

Molecules are shown by their SMILES. Like-named read-outs stand apart in the source and are kept apart here. Where only a bound is given, the exact number is not on record here.

Sequence of mouse TAAR1 (Q923Y8 whole entry): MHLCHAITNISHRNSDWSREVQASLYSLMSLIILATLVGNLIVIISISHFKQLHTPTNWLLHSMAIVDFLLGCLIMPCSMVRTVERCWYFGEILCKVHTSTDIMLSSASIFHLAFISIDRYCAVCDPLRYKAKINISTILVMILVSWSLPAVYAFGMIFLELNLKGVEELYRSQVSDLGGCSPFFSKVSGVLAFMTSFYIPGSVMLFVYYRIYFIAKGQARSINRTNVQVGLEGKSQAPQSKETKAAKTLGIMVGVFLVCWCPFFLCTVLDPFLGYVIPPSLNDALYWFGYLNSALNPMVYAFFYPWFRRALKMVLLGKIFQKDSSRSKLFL
Sequence of rat TAAR1 (Q923Y9 whole entry): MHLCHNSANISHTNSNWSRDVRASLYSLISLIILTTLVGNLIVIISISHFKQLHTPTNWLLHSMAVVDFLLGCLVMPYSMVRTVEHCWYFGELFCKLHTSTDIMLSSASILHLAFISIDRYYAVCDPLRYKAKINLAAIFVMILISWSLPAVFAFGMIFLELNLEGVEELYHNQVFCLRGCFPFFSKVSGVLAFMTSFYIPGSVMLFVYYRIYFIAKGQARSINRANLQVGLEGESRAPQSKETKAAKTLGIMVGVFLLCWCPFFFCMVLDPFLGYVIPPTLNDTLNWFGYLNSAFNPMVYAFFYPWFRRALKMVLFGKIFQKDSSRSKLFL

As to `O=C(COCC(F)(F)F)Nc1ccc([C@H]2O[C@@H]3CN[C@H]2C3)cc1` [Example 66, N-[4-[(1S,3R,4S)-2-Oxa-5-azabicyclo[2.2.1]heptan-3-yl]phenyl]-2-(2,2,2-trifluoroethoxy)acetamide], the Ki (in general, a dissociation constant, usually derived from enzyme kinetics or from competition with a known ligand) at rat TAAR1 came to 3.96 µM; on mouse TAAR1, 0.0123 µM.
For `O=C(Nc1ccc(Cl)nc1)c1ccc([C@@H]2O[C@H]3CN[C@@H]2C3)cc1` [Example 94, N-(6-Chloro-3-pyridyl)-4-[(1R,3S,4R)-2-oxa-5-azabicyclo[2.2.1]heptan-3-yl]benzamide], the inhibitory constant (Ki) on rat TAAR1 is greater than 1.45 µM; on mouse TAAR1 it was 0.0251 µM.
Take `CCOc1ccc(C(=O)Nc2ccc([C@@H]3O[C@H]4CN[C@@H]3C4)cc2)cn1` [Example 13, 6-Ethoxy-N-[4-[(1R,3S,4R)-2-oxa-5-azabicyclo[2.2.1]heptan-3-yl]phenyl]pyridine-3-carboxamide]: the Ki on rat TAAR1 was determined as 346 µM; on mouse TAAR1, 0.0063 µM.
On to `Clc1ccc(CNc2ccc([C@H]3O[C@@H]4CN[C@H]3C4)cc2)cc1` [Example 38, N-[(4-Chlorophenyl)methyl]-4-[(1S,3R,4S)-2-oxa-5-azabicyclo[2.2.1]heptan-3-yl]aniline], for which the figures for the inhibition constant Ki on rat TAAR1 and on mouse TAAR1 were 0.167 µM and 0.562 µM, respectively.
As for `FC(F)(F)c1cnc(Nc2ccc([C@@H]3O[C@H]4CN[C@@H]3C4)cc2)nc1` [Example 31, N-[4-[(1R,3S,4R)-2-Oxa-5-azabicyclo[2.2.1]heptan-3-yl]phenyl]-5-(trifluoromethyl)pyrimidin-2-amine], the inhibition constant (Ki) on rat TAAR1 was 0.0777 µM; on mouse TAAR1, 0.0221 µM.
With `O=C(Nc1ccc([C@H]2O[C@@H]3CN[C@H]2C3)cc1)c1cccc(Cl)c1` [Example 8, 3-Chloro-N-[4-[(1S,3R,4S)-2-oxa-5-azabicyclo[2.2.1]heptan-3-yl]phenyl]benzamide], the Ki at rat TAAR1 stood at 0.21 µM; on mouse TAAR1 it was 0.0046 µM.
On to `O=C(Nc1ccc(Cl)cc1)c1ccc([C@H]2O[C@@H]3CN[C@H]2C3)cc1` [Example 55], for which the inhibitory constant (Ki) at rat TAAR1 turned out to be 0.0123 µM; on mouse TAAR1, 0.0007 µM.
As for `O=C(Nc1ccc(C(F)(F)F)cc1)c1ccc([C@H]2O[C@@H]3CN[C@H]2C3)cc1` [Example 59, 4-[(1S,3R,4S)-2-Oxa-5-azabicyclo[2.2.1]heptan-3-yl]-N-[4-(trifluoromethyl)phenyl]benzamide], the values for the Ki at rat TAAR1 and on mouse TAAR1 were 1.02 µM and 0.0022 µM, respectively.
Take `O=C(NCc1ccc(Cl)cc1)c1ccc([C@@H]2O[C@H]3CN[C@@H]2C3)cc1` [Example 97, N-[(4-Chlorophenyl)methyl]-4-[(1R,3S,4R)-2-oxa-5-azabicyclo[2.2.1]heptan-3-yl]benzamide]: the inhibition constant (Ki) at rat TAAR1 was greater than 1.45 µM; at mouse TAAR1, 0.0511 µM.
For `O=C(NCc1ccc(Cl)cc1)c1ccc([C@H]2O[C@@H]3CN[C@H]2C3)cc1` [Example 64, N-[(4-Chlorophenyl)methyl]-4-[(1S,3R,4S)-2-oxa-5-azabicyclo[2.2.1]heptan-3-yl]benzamide], in that order: 1.6 µM and 0.0033 µM.
As to `CC(C)c1n[nH]c(C(=O)Nc2ccc([C@@H]3O[C@H]4CN[C@@H]3C4)cc2)c1F` [Example 103, 4-Fluoro-3-isopropyl-N-[4-[(1R,3S,4R)-2-oxa-5-azabicyclo[2.2.1]heptan-3-yl]phenyl]-11H-pyrazole-5-carboxamide], the inhibitory constant (Ki) worked out at 0.0405 µM on rat TAAR1 (read-out: Ki (μM) rat, rat TAAR1, HEK-293 membranes, second value of cell mouse/rat) and 0.0096 µM on mouse TAAR1 (read-out: Ki (μM) mouse, mouse TAAR1, HEK-293 membranes, first value of cell mouse/rat).
Regarding `O=C(Nc1ccc(F)cc1)c1ccc([C@@H]2O[C@H]3CN[C@@H]2C3)cc1` [Example 87, N-(4-Fluorophenyl)-4-[(1R,3S,4R)-2-oxa-5-azabicyclo[2.2.1]heptan-3-yl]benzamide], the inhibition constant Ki at rat TAAR1 was greater than 1.45 µM; at mouse TAAR1, 0.145 µM.
`FC(F)(F)c1cnc(Nc2ccc([C@H]3O[C@@H]4CN[C@H]3C4)cc2)cn1` [Example 22, N-[4-[(1S,3R,4S)-2-Oxa-5-azabicyclo[2.2.1]heptan-3-yl]phenyl]-5-(trifluoromethyl)pyrazin-2-amine]: the Ki on rat TAAR1 was 0.34 µM; at mouse TAAR1, 0.0076 µM.

The values are drawn from patent publication US9790230B2 (Hoffmann-La Roche Inc., priority 2015, dated 2017).
